# Laboratory results published in US20210155671A1 (priority 2019, published 2021).
# Legend:
# Daudi = type: cell-based
# SU-DHL-4 = type: cell-based
# HBL-1 = type: cell-based
# Raji = type: cell-based
# lymphoma (Daudi) cells = type: cell-based
# Protocol: The cytotoxicity of Molecule 001 in combination with lenalidomide was also tested in vitro, in lymphoma (Daudi) cells. […] Following this, Molecule 001 was added and viability was measured after an additional 3 days, using the Promega® Cell Titer-Gb® assay (FIG. 19C).
# [1] = system: Burkitt's lymphoma (ST-486) cells; type: cell-based; conditions: 72 hours
# Protocol: The cytotoxicity of Molecule 001 in combination with lenalidomide was also tested in Burkitt's lymphoma (ST-486) cells. The cells were incubated with Molecule 001 only, lenalidomide only, or a combination of Molecule 001 and lenalidomide. Cell viability was measured 72 hours after treatment using the Promega® Cell TiterGlo® assay (FIG. 19E).
# CD20 = CD20 (Homo sapiens, UniProt P11836); conditions: at 37° C.; cited from earlier work
# Sequence of CD20 (P11836 whole entry): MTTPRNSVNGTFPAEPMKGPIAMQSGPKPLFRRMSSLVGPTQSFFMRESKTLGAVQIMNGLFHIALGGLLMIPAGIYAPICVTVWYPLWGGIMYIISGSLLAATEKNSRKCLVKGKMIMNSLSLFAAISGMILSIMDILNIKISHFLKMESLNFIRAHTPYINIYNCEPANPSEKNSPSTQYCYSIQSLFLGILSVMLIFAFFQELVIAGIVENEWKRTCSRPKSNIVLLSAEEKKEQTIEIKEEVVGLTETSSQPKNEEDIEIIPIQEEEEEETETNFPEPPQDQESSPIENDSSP
compound,measurement,setting,value
Cn1c(CCCC(=O)O)nc2cc(N(CCCl)CCCl)ccc21 [Bendamustine],In vitro responses to Molecule 001 in combination with chemotherapy,Daudi,Synergistic
same,In vitro responses to Molecule 001 in combination with chemotherapy,SU-DHL-4,Synergistic
same,In vitro responses to Molecule 001 in combination with chemotherapy,HBL-1,Synergistic
N.N.[Cl][Pt][Cl] [Cisplatin],In vitro responses to Molecule 001 in combination with chemotherapy,Daudi,Mixed
same,In vitro responses to Molecule 001 in combination with chemotherapy,Raji,Synergistic
same,In vitro responses to Molecule 001 in combination with chemotherapy,SU-DHL-4,Mixed
COc1cccc2c1C(=O)c1c(O)c3c(c(O)c1C2=O)C[C@@](O)(C(=O)CO)C[C@@H]3O[C@H]1C[C@H](N)[C@H](O)[C@H](C)O1 [Doxorubicin],In vitro responses to Molecule 001 in combination with chemotherapy,Daudi,Mixed
same,In vitro responses to Molecule 001 in combination with chemotherapy,Raji,Synergistic
same,In vitro responses to Molecule 001 in combination with chemotherapy,HBL-1,Synergistic
Nc1ccn([C@@H]2O[C@H](CO)[C@@H](O)C2(F)F)c(=O)n1 [Gemcitabine],In vitro responses to Molecule 001 in combination with chemotherapy,Raji,Synergistic
CC[C@]1(O)C[C@H]2CN(CCc3c([nH]c4ccccc34)[C@@](C(=O)OC)(c3cc4c(cc3OC)N(C=O)[C@H]3[C@@](O)(C(=O)OC)[C@H](OC(C)=O)[C@]5(CC)C=CCN6CC[C@]43[C@@H]65)C2)C1 [Vincristine],In vitro responses to Molecule 001 in combination with chemotherapy,Raji,Synergistic
Nc1cccc2c1CN(C1CCC(=O)NC1=O)C2=O (stereo not shown) [lenalidomide],toxicity of Molecule 001 on cells pre-treated with lenalidomide (isobologram),"lymphoma (Daudi) cells; Daudi cells pre-treated with lenalidomide for 24 hours, then Molecule 001, viability after additional 3 days",synergistic toxicity
same,potency of the combination of Molecule 001 and LEN against lymphoma cells,lymphoma (Daudi) cells; versus either agent alone,significantly greater potency against lymphoma cells than either agent alone
same,effect of lenalidomide on the activity of Molecule 001,[1],no effect on the activity of Molecule 001
same,effect of lenalidomide on cell viability,[1]; concentrations used in this assay,little effect on cell viability
rituximab,time to maximal cellular internalization,CD20,16 to 18 h
